Results taken from paper PMC3632306 (Journal of medicinal chemistry, 2013).
Entries after “also recorded” stand apart in the source; their conditions may differ.

Experiments:
PLD1 = target: T1, PLD1 (Homo sapiens, UniProt Q13393)
T1 sequence (Q13393 1-1074): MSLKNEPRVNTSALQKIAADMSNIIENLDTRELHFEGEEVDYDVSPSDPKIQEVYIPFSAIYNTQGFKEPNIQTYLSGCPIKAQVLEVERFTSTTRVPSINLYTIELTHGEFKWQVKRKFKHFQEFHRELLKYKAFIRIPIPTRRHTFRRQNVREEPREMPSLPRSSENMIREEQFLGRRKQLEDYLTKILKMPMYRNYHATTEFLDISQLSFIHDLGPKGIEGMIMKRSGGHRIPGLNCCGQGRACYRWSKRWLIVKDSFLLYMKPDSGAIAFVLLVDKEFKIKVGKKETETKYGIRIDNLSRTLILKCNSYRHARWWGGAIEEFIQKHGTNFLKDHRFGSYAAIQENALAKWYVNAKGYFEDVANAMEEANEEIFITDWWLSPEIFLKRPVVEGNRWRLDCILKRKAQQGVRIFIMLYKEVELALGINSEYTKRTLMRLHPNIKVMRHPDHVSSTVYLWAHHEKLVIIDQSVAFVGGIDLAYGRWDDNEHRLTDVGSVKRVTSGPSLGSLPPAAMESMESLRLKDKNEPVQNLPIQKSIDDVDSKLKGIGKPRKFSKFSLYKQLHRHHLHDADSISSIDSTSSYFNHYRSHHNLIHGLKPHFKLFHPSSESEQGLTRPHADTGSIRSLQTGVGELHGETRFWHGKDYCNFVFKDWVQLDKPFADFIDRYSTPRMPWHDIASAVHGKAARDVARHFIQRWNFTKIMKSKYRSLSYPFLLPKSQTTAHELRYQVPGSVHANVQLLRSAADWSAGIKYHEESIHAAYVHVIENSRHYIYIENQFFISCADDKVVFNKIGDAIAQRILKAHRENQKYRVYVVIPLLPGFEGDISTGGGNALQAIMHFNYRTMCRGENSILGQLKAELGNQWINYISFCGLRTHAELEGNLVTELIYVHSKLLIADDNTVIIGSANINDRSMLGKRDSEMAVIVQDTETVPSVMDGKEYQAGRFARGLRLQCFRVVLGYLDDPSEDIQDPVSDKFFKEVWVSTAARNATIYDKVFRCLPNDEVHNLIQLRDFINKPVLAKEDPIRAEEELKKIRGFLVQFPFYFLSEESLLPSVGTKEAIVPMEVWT

[1] = test system: U87-MG glioblastoma cells; experiment: Invasive migration in U87-MG cells; type: cell-based, human; settings: for Invasive migration in U87-MG cells: 100 nM to 10 μM, 48 hours
in vivo = settings: mouse, ip, 10 mg/kg
U87-MG cells = experiment: U87-MG cell viability; type: cell-based, human; settings: concentrations up to 10 μM, relative to DMSO, 10% FBS
[2] = not given; remark: listed apart in the source
PLD2 = PLD2 (Homo sapiens, UniProt O14939); settings: purified PLD proteins; data comparable to cell-based assay
PLD2, sequence (O14939 whole entry, species assumed): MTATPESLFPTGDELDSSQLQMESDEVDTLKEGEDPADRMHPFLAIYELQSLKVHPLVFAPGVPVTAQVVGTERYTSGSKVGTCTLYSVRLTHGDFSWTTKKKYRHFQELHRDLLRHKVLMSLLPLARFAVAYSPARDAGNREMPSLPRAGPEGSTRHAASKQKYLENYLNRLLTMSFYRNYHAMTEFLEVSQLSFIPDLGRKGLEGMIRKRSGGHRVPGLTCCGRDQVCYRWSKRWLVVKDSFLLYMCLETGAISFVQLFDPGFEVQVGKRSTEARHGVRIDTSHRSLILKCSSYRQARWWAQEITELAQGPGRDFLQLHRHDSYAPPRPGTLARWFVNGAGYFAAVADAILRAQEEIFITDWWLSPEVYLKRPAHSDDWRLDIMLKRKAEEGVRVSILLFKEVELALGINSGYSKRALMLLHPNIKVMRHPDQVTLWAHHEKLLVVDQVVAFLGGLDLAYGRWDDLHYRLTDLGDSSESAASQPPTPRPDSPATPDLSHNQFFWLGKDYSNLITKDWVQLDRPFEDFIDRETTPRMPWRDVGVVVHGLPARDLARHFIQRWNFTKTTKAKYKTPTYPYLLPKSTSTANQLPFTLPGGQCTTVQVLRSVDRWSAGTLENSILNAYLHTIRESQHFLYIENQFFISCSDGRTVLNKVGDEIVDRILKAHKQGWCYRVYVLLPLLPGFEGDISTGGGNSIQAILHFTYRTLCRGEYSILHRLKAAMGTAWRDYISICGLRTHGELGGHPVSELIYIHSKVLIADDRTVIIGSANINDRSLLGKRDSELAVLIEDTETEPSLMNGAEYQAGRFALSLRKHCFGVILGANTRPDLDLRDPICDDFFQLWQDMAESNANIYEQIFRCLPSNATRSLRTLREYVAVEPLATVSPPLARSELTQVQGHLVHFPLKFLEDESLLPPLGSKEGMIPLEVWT

SMILES | Rat CLHEP | Concentration up to which PLD1 is not inhibited (PLD1) | PLD1 inhibition (PLD1) | Invasive migration in U87-MG cells [1] | Dose at which decrease in invasive migration reached statistical significance ([1]; U87-MG cells) | AUC at 6 h (in vivo) | Effect on U87-MG cell viability (U87-MG cells) | Human CLHEP [2] | Direct action on PLD2 in biochemical assay (PLD2)
O=C(NCCN1CCC2(CC1)C(=O)NCN2c1cccc(F)c1)c1ccc(F)c(F)c1 [ML298, 3,4-Difluoro-N-(2-(1-(3-fluorophenyl)-4-oxo-1,3,8-triazaspiro[4.5]decan-8yl)ethyl)benzamide] | 60.9 mL/min/kg | > 20 µM | no inhibition of PLD1 | dose-dependent decrease; also recorded: decreased invasive migration | 10 µM | 1.55 µM·h | no effect | 17.8 mL/min/kg | acted directly on PLD2
Cc1cccc(N2CNC(=O)C23CCN(C[C@H](C)NC(=O)c2ccc(Br)cc2)CC3)c1 [ML299] | – | – | – | dose-dependent decrease; also recorded: decreased invasive migration | – | – | no effect | – | –
